Data set [1] is described as follows: Plasma concentration vs. time after single intravenous and oral dose (IV and oral clearance). Type of data set: in vivo, Sprague-Dawley rats. Particulars: rats having "normal" gut function; single dose given intravenously and orally (FIG. 3). The text has this: (§1) Example 1 may be categorized as fluorescent challenge molecule is not substantially absorbed by a healthy gut.

Data set [2] can be described thus: Light absorption and emission maxima of the fluorescent challenge molecule. Type of data set: physicochemical.
Source text: as §1
Example 2 may be categorized as fluorescent challenge molecule is not substantially absorbed by a healthy gut as the molecular weight is relatively high (344 g/mol).
(§2) Example 3 may be categorized as fluorescent challenge molecule that is substantially absorbed by a healthy gut as the molecular weight is relatively low (198 g/mol).

Data set [3] in a line: Clearance from the body followed by fluorescence signal, with and without ligated kidneys. The data set is classed as in vivo. Particulars: for clearance pathway from the body: fluorescence signal over time.
Source text: as §2

Take `Nc1nc(C(=O)N[C@H](CO)C(=O)O)c(N)nc1C(=O)N[C@H](CO)C(=O)O` [Example 1, 3,6-diamino-2,5-bis{N-[(1R)-1-carboxy-2-hydroxyethyl]carbamoyl}pyrazine]: the oral bioavailability result in data set [1] is on record as “very little”. In data set [2], this compound showed a light absorption maximum of 445 nm and a light emission maximum of 560 nm.

In data set [2], `NC(=O)c1nc(NCC(O)CO)c(C(N)=O)nc1NCC(O)CO` (stereo not shown) [Example 2, 3,6-N,N′-bis(2,3-dihydroxypropyl)-2,5-pyrazinedicarboxamide] displayed a light absorption maximum of 486 nm and a light emission maximum of 600 nm.

`Nc1nc(C(=O)O)c(N)nc1C(=O)O` [Example 3, 3,6-diaminopyrazine-2,5-dicarboxylic Acid]: the “clearance pathway from the body” value in data set [3] is “clears from the body by the renal system”; in data set [3] (listed as Example Compound 3), “clears from the body via the renal system”. Besides, the “fluorescence signal when the kidneys are ligated” value in data set [3] (kidneys ligated, no excretion pathway) is listed as “stays elevated”. In data set [2], this compound gave a light absorption maximum of 396 nm. The same compound gave a light emission maximum in data set [2] of 536 nm.

For the origin of these results see US12048751B2, “Compositions and methods for assessing gut function” (MediBeacon Inc., priority 2013, dated 2024).
